Results reported in ChEMBL document CHEMBL4765284, “Optimization of 5-substituted thiazolyl ureas and 6-substituted imidazopyridines as potential HIV-1 latency reversing agents” (Eur J Med Chem, 2020).
Values after ≈ are worked out from the molar mass of the structure shown.

Columns and labels:
[1] = test system: Human immunodeficiency virus 1; test: Antiviral activity against HIV-1 infected in FlpIn-HEK293 cells assessed as activation of long terminal repeat driven gene expression incubated for 72 hrs by luciferase based cellular assay; format: functional, organism-based; conditions: Human immunodeficiency virus 1, HEK293, 72 h
Cytomegalovirus = test: Antiviral activity against CMV infected in FlpIn-HEK293 cells assessed as click beetle green reporter driven gene expression incubated for 72 hrs by luciferase based cellular assay; format: functional, organism-based; conditions: HEK293, 72 h
[2] = Aqueous solubility of compound at pH 2 by nephelometry; format: physicochemical
[3] = Aqueous solubility of compound at pH 6.5 by nephelometry; format: physicochemical
[4] = Metabolic stability in mouse liver microsomes assessed as half life at 1 uM measured upto 60 mins by LC-MS anlaysis; format: ADME, Microsome
[5] = Metabolic stability in mouse liver microsomes assessed as intrinsic clearance at 1 uM measured upto 60 mins by LC-MS anlaysis; format: ADME, Microsome; conditions: read-out: CLH
[6] = test system: Human immunodeficiency virus 1; test: Antiviral activity against HIV-1 infected in FlpIn-HEK293 cells assessed as maximal activation of long terminal repeat driven gene expression at 0.63 uM incubated for 48 hrs by luciferase based cellular assay relative to control; format: functional
[7] = test system: Human immunodeficiency virus 1; test: Antiviral activity against HIV-1 infected in J-Lat 10.6 cells assessed as maximal activation of long terminal repeat driven gene expression incubated for 48 hrs by green fluorescent protein based cellular assay; format: functional, organism-based; conditions: Human immunodeficiency virus 1, J-Lat 10.6, 48 h
[8] = test system: Human immunodeficiency virus 1; test: Antiviral activity against HIV-1 infected in J-Lat 10.6 cells assessed as maximal activation of long terminal repeat driven gene expression at 2 uM incubated for 48 hrs by green fluorescent protein based cellular assay relative to control; format: functional
[9] = Cytotoxicity against human HepG2 cells assessed as growth incubation incubated for 48 hrs by cell titer glo assay; format: cell-based
[10] = Metabolic stability in human liver microsomes assessed as half life at 1 uM measured upto 60 mins by LC-MS anlaysis; format: ADME, Microsome
[11] = Metabolic stability in human liver microsomes assessed as intrinsic clearance at 1 uM measured upto 60 mins by LC-MS analysis; format: ADME, Microsome; conditions: read-out: CLH
[12] = test system: Human immunodeficiency virus 1; test: Antiviral activity against HIV-1 infected in FlpIn-HEK293 cells assessed as maximal activation of long terminal repeat driven gene expression at 0.25 uM incubated for 48 hrs by luciferase based cellular assay relative to control; format: functional
[13] = test system: Human immunodeficiency virus 1; test: Antiviral activity against HIV-1 infected in J-Lat 10.6 cells assessed as maximal activation of long terminal repeat driven gene expression at 1 uM incubated for 48 hrs by green fluorescent protein based cellular assay relative to control; format: functional
[14] = test system: Human immunodeficiency virus 1; test: Antiviral activity against HIV-1 infected in FlpIn-HEK293 cells assessed as maximal activation of long terminal repeat driven gene expression at 0.13 uM incubated for 48 hrs by luciferase based cellular assay relative to control; format: functional
[15] = molecular target: Cyclin-dependent kinase 9 (Homo sapiens) (UniProt P50750); test: Inhibition of CDK9 (unknown origin) at 0.5 uM
Cyclin-K (Homo sapiens) = molecular target: T1, Cyclin-K (Homo sapiens) (UniProt O75909); test: Inhibition of cyclin K (unknown origin) at 0.5 uM
T1 sequence (whole entry): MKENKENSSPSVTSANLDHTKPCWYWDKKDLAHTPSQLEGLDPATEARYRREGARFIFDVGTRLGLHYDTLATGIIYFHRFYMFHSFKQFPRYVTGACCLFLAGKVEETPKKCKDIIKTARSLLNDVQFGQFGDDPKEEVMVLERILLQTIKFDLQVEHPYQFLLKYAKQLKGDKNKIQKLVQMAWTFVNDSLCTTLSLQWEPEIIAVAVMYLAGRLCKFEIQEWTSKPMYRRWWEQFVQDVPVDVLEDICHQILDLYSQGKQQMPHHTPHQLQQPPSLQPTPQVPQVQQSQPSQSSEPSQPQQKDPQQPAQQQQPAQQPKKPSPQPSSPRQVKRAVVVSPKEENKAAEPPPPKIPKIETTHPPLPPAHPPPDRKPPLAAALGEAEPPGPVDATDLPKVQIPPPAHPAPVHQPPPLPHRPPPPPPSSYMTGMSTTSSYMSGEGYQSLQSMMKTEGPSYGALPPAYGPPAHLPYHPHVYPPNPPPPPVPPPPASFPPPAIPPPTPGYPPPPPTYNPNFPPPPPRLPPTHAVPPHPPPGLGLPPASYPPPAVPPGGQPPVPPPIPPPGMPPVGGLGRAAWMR

Cyclin-T1 (Homo sapiens) = Cyclin-T1 (Homo sapiens) (UniProt O60563); test: Inhibition of cyclin T1 (unknown origin) at 0.5 uM
Cyclin-T2 (Homo sapiens) = Cyclin-T2 (Homo sapiens) (UniProt O60583); test: Inhibition of cyclin T2 (unknown origin) at 0.5 uM
[16] = test system: Human immunodeficiency virus 1; test: Antiviral activity against HIV-1 infected in FlpIn-HEK293 cells assessed as maximal activation of long terminal repeat driven gene expression at 0.31 uM incubated for 48 hrs by luciferase based cellular assay relative to control; format: functional
[17] = test system: Human immunodeficiency virus 1; test: Antiviral activity against HIV-1 infected in FlpIn-HEK293 cells assessed as maximal activation of long terminal repeat driven gene expression at 0.16 uM incubated for 48 hrs by luciferase based cellular assay relative to control; format: functional
[18] = test system: Human immunodeficiency virus 1; test: Antiviral activity against HIV-1 infected in J-Lat 10.6 cells assessed as maximal activation of long terminal repeat driven gene expression at 0.25 uM incubated for 48 hrs by green fluorescent protein based cellular assay relative to control; format: functional
[19] = test system: Human immunodeficiency virus 1; test: Antiviral activity against HIV-1 infected in FlpIn-HEK293 cells assessed as maximal activation of long terminal repeat driven gene expression at 5 uM incubated for 48 hrs by luciferase based cellular assay relative to control; format: functional

Cyclin-dependent kinase 9 (Homo sapiens), sequence (P50750 whole entry): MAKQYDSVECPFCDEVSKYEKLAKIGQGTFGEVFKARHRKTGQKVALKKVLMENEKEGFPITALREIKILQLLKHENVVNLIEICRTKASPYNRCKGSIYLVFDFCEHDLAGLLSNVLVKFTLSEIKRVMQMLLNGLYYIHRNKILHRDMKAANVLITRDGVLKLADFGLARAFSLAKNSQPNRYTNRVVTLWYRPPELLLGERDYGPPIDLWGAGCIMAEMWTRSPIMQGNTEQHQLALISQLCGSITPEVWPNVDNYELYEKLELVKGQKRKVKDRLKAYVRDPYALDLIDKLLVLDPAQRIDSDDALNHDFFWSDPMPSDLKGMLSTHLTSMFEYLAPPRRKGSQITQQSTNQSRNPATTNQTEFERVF
Cyclin-T1 (Homo sapiens), sequence (O60563 whole entry): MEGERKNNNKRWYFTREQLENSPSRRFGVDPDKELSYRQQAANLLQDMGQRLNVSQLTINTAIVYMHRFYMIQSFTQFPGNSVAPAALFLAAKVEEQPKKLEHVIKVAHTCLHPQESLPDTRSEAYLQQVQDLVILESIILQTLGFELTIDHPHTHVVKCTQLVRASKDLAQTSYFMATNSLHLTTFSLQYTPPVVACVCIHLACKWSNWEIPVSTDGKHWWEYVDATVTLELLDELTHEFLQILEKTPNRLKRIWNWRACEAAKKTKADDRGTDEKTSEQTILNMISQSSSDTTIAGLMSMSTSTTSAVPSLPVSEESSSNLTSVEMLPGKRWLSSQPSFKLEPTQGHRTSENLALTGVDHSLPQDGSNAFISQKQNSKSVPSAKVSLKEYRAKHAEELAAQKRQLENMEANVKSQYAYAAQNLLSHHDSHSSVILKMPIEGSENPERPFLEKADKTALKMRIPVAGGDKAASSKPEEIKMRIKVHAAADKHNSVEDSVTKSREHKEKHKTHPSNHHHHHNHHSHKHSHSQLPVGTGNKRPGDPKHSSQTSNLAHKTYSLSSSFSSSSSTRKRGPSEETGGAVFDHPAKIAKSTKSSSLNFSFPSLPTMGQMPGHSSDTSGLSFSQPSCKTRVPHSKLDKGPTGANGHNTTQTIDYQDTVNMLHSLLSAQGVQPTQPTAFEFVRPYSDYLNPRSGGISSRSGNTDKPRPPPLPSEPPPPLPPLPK
Cyclin-T2 (Homo sapiens), sequence (O60583 whole entry): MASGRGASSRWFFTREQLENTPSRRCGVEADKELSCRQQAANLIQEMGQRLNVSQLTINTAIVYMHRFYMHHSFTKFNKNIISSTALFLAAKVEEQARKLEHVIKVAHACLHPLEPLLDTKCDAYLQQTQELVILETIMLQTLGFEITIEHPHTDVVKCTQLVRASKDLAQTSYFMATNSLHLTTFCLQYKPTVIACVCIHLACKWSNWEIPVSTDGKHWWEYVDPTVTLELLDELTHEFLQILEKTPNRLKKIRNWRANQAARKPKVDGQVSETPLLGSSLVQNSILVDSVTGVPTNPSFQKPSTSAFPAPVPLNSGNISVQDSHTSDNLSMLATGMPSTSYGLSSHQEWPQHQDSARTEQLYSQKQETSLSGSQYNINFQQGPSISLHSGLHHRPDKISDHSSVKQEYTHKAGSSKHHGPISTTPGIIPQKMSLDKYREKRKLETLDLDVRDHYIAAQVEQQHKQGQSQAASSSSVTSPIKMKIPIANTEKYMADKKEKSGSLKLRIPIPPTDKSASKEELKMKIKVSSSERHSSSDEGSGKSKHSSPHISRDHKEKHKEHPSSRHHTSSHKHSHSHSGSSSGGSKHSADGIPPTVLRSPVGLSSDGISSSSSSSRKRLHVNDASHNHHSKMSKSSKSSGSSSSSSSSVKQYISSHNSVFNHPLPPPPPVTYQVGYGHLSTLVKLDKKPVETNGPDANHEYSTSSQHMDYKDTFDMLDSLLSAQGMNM

Row | SMILES | EC50 [1] | EC50 (Cytomegalovirus) | solubility kinetic [2] | solubility kinetic [3] | half-life at 1 µM [4] | microsomal CLint at 1 µM [5] | EC50 [7] | half-life at 1 µM [10] | microsomal CLint at 1 µM [11] | CC50 at 48 h [9] | other results
1 | Cc1cc(NC2CCN(C(=O)Nc3ncc(Cl)s3)C2)ccc1Cl (stereo not drawn) | 790 nM | 1800 nM | 6.3 µM (≈ 2.34 µg/mL) | 1.6 µM (≈ 0.594 µg/mL) | 11 min | 151 µL/min/mg | 3000 nM | – | – | 680 nM | %max [6]: 39%; %max [8]: 20%
2 | Cc1cnc(NC(=O)CCCOc2ccc(Cl)c(C)c2)s1 | – | – | < 1.1 µM | 1.1 µM (≈ 0.357 µg/mL) | 2 min | 815 µL/min/mg | – | 10 min | 175 µL/min/mg | – | –
3 | Clc1cnc2[nH]c(CCCOc3cnc(Cl)c(Cl)c3)nc2c1 | 6400 nM | 2400 nM | 12.5 µM (≈ 4.47 µg/mL) | 1.6 µM (≈ 0.572 µg/mL) | 14 min | 122 µL/min/mg | > 4000 nM | – | – | 1900 nM | %max [14]: 26%; %max [8]: 11%
4 | Cc1cnc2[nH]c(N3CCN(c4ccc(C)c(Cl)c4)CC3)nc2c1 | 3200 nM | 2800 nM | 50 µM (≈ 17.1 µg/mL) | < 1.6 µM | 8 min | 224 µL/min/mg | – | 15 min | 115 µL/min/mg | – | –
5 | Cc1ccc(N2CCN(C(=O)Nc3ncc(Cl)s3)CC2=O)cc1Cl | 640 nM | 13000 nM | 1.6 µM (≈ 0.616 µg/mL) | 1.6 µM (≈ 0.616 µg/mL) | 60 min | 29 µL/min/mg | 2700 nM | – | – | 42000 nM | %max [16]: 47%; %max [8]: 38%
6 | Cc1ccc(OCCCc2nc3cc(Cl)cnc3[nH]2)cc1Cl | 9400 nM | 12000 nM | 1.6 µM (≈ 0.538 µg/mL) | < 1.6 µM | < 2 min | > 866 µL/min/mg | – | 5 min | 329 µL/min/mg | – | –
7 | N#Cc1cccc(N2CCN(C(=O)Nc3ncc(Cl)s3)CC2)c1 | 610 nM | 500 nM | < 1.6 µM | < 1.6 µM | 46 min | 38 µL/min/mg | 480 nM | – | – | 50 nM | %max [16]: 22%; %max [18]: 28%

Further compounds by falling EC50 [1], results first:

Row | EC50 [1] | EC50 (Cytomegalovirus) | solubility kinetic [2] | solubility kinetic [3] | half-life at 1 µM [4] | microsomal CLint at 1 µM [5] | EC50 [7] | half-life at 1 µM [10] | microsomal CLint at 1 µM [11] | SMILES | CC50 at 48 h [9] | other results
8 | 390 nM | 150 nM | < 1.6 µM | < 1.6 µM | 80 min | 22 µL/min/mg | 1100 nM | – | – | N#Cc1cnc(NC(=O)N2CCN(c3cnc(Cl)c(Cl)c3)CC2)s1 | 120 nM | %max [17]: 25%; %max [18]: 28%
9 | 350 nM | 4400 nM | < 1.6 µM | < 1.6 µM | 117 min | 15 µL/min/mg | 1600 nM | 151 min | 11 µL/min/mg | N#Cc1cnc(NC(=O)N2CCN(c3ccc(Cl)c(Cl)c3)CC2)s1 | 410 nM | %max [19]: 87%; %max [13]: 30%
10 | 240 nM | 670 nM | < 1.6 µM | < 1.6 µM | 33 min | 53 µL/min/mg | 1700 nM | – | – | Cc1ccc(N2CCN(C(=O)Nc3ncc(Cl)s3)CC2)cc1Cl | 250 nM | %max [12]: 53%; %max [13]: 23%; inhibition [15]: 40%; inhibition (Cyclin-K (Homo sapiens)): 40%; inhibition (Cyclin-T1 (Homo sapiens)): 40%; inhibition (Cyclin-T2 (Homo sapiens)): 40%
11 | 230 nM | 1700 nM | 1.6 µM (≈ 0.572 µg/mL) | 1.6 µM (≈ 0.572 µg/mL) | 36 min | 49 µL/min/mg | 1500 nM | – | – | Cc1ccc(NC2CN(C(=O)Nc3ncc(Cl)s3)C2)cc1Cl | 330 nM | %max [12]: 63%; %max [13]: 31%
